We go through 8 molecules from PMC12667295, “A surrogate barrier model for high-throughput blood-brain barrier permeability prediction: integrating LLC-PK1-MOCK/MDR1 Cells and lysosomal trapping correction” (Drug Delivery, 2025).

The conditions of data set [1]: cited from earlier work.
A short description of data set [2]: in vitro. The conditions noted are these: rat, plasma. On the procedure: (§1) Stocks (10 mM) of test compounds were diluted to 5 μM with plasma or tissue homogenate and dialyzed at 37 °C for 6 hours in a shaking incubator. After incubation aliquots of both plasma or tissue homogenate and buffer from the device were taken and added to equal volumes of blank buffer and plasma or tissue homogenate respectively. Samples were then diluted in acetonitrile containing an internal standard prior to centrifugation and analysis of the supernatants by LC-MS/MS. The fu, plasma was calculated using Equation 1:(1) fu,plasma=Concbuffer chamber/Concsample chamber
(§2) Unbound fractions of test drugs in plasma (fu,plasma) and brain tissue (fu,brain). For compounds with existing rat plasma or brain protein-binding data from literature or internal studies, values were directly adopted.

Data set [3] is described as follows: in vitro. The note with it: rat, brain homogenate. On the procedure: as §1
Rat fraction unbound in brain (fu, brain) was determined as the ratio of concentration in buffer to that in brain.
as §2

A further data set in a line: in vivo. The conditions noted are these: rat; for Kp: Brain. An excerpt:
In vivo unbound brain distribution data (Kp,uu,Brain) for 16 drugs and total brain distribution data (Kp,Brain) for 16 drugs was acquired from literature. […] For each tested compound, fifteen rats were randomly divided into five groups of three rats each. […] The time of execution of the rats by CO2 inhalation after administration was optimized according to the in vivo elimination rate to achieve five concentrations of different time points. After the rats were euthanized, cardiac puncture was performed immediately to remove as much whole blood as possible (~7 ml) from the systemic circulation (Quantitatively aliquot 0.2 ml of whole blood for the determination of drug concentration in plasma). Afterwards, the brain tissue was collected immediately and rinsed repeatedly with ice-cold saline 3 times. Then, the surface saline was blotted dry with clean filter paper to remove as much residual drug in the blood vessels as possible. Plasma samples were prepared by centrifugation of the blood samples at 2,500 g for 10 minutes at 4 °C. All brain samples were homogenized by adding 4-fold volume water. All samples were stored at -40 °C before LC-MS/MS analysis. […] The brain tissue partition coefficient (Kp, brain) and brain-to-plasma unbound drug partition ratio (Kp,uu, brain) are calculated according to the following formulas, respectively: Kp,brain=AUC(0−∞,brain)/AUC(0−∞,plasma)Kp,uu,brain=Kp,brain×(fu,tissue/fu,plasma)
Free brain-to-plasma distribution coefficients (Kp,uu,brain) of 41 drugs. Brain distribution coefficients (Kp,uu,brain) were calculated for 41 drugs. […] Plasma and brain concentration-time profiles were generated, and AUC(0-t) values for both matrices were calculated using WinNolin 8.1. Kp,brain was derived as the ratio of brain-to-plasma AUC(0-t).
Kp,uu,brain values were computed by normalizing Kp,brain to unbound fractions (fu,plasma and fu,brain).

The test system of data set [4] is P-gp (human MDR1). The data set can be described thus: in vitro. The conditions noted are these: pig.
Description: (§3) The overexpression and functional activity of P-glycoprotein (P-gp) in the LLC-PK1-MDR1 cells were rigorously validated through multiple methods.
(§4) Cells were passaged at 80−90% confluence (every 2−3 days) using trypsin-EDTA solution. […] The culture medium was replaced every other day, including 200 µL culture medium in the apical and 850 µL cell culture medium in the basolateral side. LLC-PK1 MOCK cells were used at passages of 3−30. LLC-PK1-MDR1 cells were cultured and passaged in the same manner as LLC-PK1 cells except at the density of 1 × 10^4 cells per well. LLC-PK1-MDR1 cells were used at passages of 3−25. For LLC-PK1 MOCK cells and LLC-PK1-MDR1 cells, the experiments were performed on the 4th and 7th day after seeding.
(§5) Monitoring permeability of positive control drugs. […] Samples were collected from the donor well at the start of the incubation (50 µL) as C0, and from the donor and receiver wells at the end of the incubation (50 µL). All samples were stored at - 40 °C for LC-MS/MS analysis.
(§6) Bidirectional transport experiments. […] The transwell experiments were conducted following above-mentioned procedure. […] When the recovery rate of the tested drug is below 80%, the possibility of intracellular accumulation should be considered. The polycarbonate (PC) membrane where cells are grown should be carefully peeled off from the cell culture medium and placed in 100 µL of HBSS buffer solution. […] The process was carried out on ice to prevent heat-induced degradation, applying a power in the range of 300 W for a total duration of 20 minutes. Thereafter, a quantitative analysis of the intracellular drug was conducted, and the drug recovery rate was recalculated based on this analysis.
(§7) The apparent permeability coefficient (Papp, cm/s) was calculated for each transport direction, A-B and B-A, using the following equation: Papp=dQ/dt×1/A×C0 where dQ/dt is the permeation rate (µmol/s), A is the surface area of the insert (0.33 cm^2, Corning), and C0 is the initial donor concentration (µM).
(§8) The efflux ratio (ER) is calculated as the ratio of Papp (B-A)/Papp (A-B). Recovery=TRcumrf+Cdf×VD/Cdi×VD×100% Where TRcumrf is the cumulative transported mass in the receiver chamber at the end of the incubation (nmol), Cdf is the concentration of the drug in the donor chamber at the end of the incubation (μM), VD is the volume of the donor chamber (mL), and Cdi is the initial concentration of the drug in the donor chamber (μM).
(§9) The method of the bidirectional transport experiment was the same as before.
The nature of data set [5]: Bidirectional transport across LLC-PK1 MOCK monolayer (Transwell).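 Note: compound quantified by LC-MS/MS in donor and receiver wells, efflux ratio as B-A over A-B Papp, recovery relative to initial donor amount.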 The note with it: pig.
In data set [6] the test system is P-gp (human MDR1). The data set can be described thus: Bidirectional transport across LLC-PK1-MDR1 monolayer stably expressing human MDR1 (P-gp) (Transwell).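 Note: 2 h incubation at 37 °C, receiver HBSS with 10 mM Hepes plus 1% BSA, LC-MS/MS of donor and receiver, recovery as receiver plus donor amount over initial donor amount.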 The note with it: pig.
Description: as §3, §4, §5, §6, §7, §8, §9
Data set [7] can be described thus: in vitro. The note with it: pig; for Papp B→A at 2 h, 2 µM: LLC-PK1, pH 7.4; for recovery at 2 h, 2 µM: pH 7.4.
[8] abbreviates: LLC-PK1, pH 7.4, Papp A-B, LLC-PK1 MOCK, 2 µM, 2 h, mean ± s, n = 3, BLQ = below 2 nM.
[9] abbreviates: LLC-PK1 MOCK cell monolayer (Transwell).

Like-named read-outs stand apart in the source and are kept apart here. Where only a bound is given, the exact number is not on record here.

Regarding `Nc1nnc(-c2cccc(Cl)c2Cl)c(N)n1` [Lamotrigine], in data set [1] (ref Fridén [2009]), the “Kp, Brain” value was 2.02 and the “Kp,uu,Brian” value is reported as 0.880.

As for `COc1ccc2[nH]c([S+]([O-])Cc3ncc(C)c(OC)c3C)nc2c1` (stereo not shown) [Omeprazole], the fraction unbound at 6 h, 5 µM in the data set “in vitro [2]” was 0.045; in the data set “in vitro [3]”, 0.321. Moreover, in “in vivo”, the Kp uu stood at 1.09. In the data set with P-gp (human MDR1) [4] (LLC-PK1, pH 7.4), this molecule showed a recovery at 2 h, 2 µM of 113 ± 1.46%. Moreover, the “Kp, Brain” value in data set [1] (ref Cheng et al. [2002]) is 0.15. The Papp B→A at 2 h, 2 µM came out at 28.9 ± 1.39 ×10⁻⁶ cm/s in data set [5] (LLC-PK1, pH 7.4) and 41.5 ± 2.92 ×10⁻⁶ cm/s in the data set on P-gp (human MDR1) [6] (LLC-PK1, pH 7.4). In addition, the Papp A→B at 2 h, 2 µM in data set [5] (setting [8]) is 34.2 ± 0.55 ×10⁻⁶ cm/s; with P-gp (human MDR1) [6] (LLC-PK1, pH 7.4, Papp A-B, LLC-PK1-MDR1, 2 µM, 2 h, mean ± s, n = 3), 25.4 ± 0.66 ×10⁻⁶ cm/s.

Regarding `CCOc1ccc(NC(C)=O)cc1` [Phenacetin], the fraction unbound at 6 h, 5 µM was 0.416 in “in vitro [2]” and 0.419 in the data set “in vitro [3]”. In “in vivo” (SD, iv, 1 mg/kg), the Kp uu came to 0.768. Also, in “in vivo” (SD, iv, 1 mg/kg), the Kp worked out at 0.763. Further, the Papp B→A at 2 h, 2 µM in the data set “in vitro [7]” amounted to 27.2 ± 1.32 ×10⁻⁶ cm/s; with P-gp (human MDR1) [6] (LLC-PK1, pH 7.4), 29 ± 1.19 ×10⁻⁶ cm/s. Besides, the Papp A→B at 2 h, 2 µM in data set [5] (setting [8]) is 35.2 ± 0.08 ×10⁻⁶ cm/s; in the data set with P-gp (human MDR1) [6] (LLC-PK1, pH 7.4), 36.6 ± 2.48 ×10⁻⁶ cm/s.

In the data set “in vitro [7]” (setting [9]), `CC(C)NCC(O)COc1cccc2ccccc12` (stereo not shown) [Propranolol] yielded a recovery at 2 h, 2 µM of 90.9 ± 7.14%. This molecule had a recovery at 2 h, 2 µM with P-gp (human MDR1) [4] (LLC-PK1, pH 7.4) of 80.7 ± 1.03%. Moreover, in data set [1] (ref Fridén [2009]), the “Kp, Brain” value is 16.37 and the “Kp,uu,Brian” value is on record as 0.61. Also, in data set [5] (LLC-PK1, pH 7.4), the Papp B→A at 2 h, 2 µM is 20.1 ± 0.71 ×10⁻⁶ cm/s and the efflux ratio at 2 h, 2 µM was determined as 0.88. Also, the Papp A→B at 2 h, 2 µM in data set [5] (setting [8]) worked out at 22.8 ± 2.13 ×10⁻⁶ cm/s. Besides, in the data set on P-gp (human MDR1) [6] (LLC-PK1, pH 7.4), the apparent permeability from apical to basolateral (Papp A→B) at 2 h, 2 µM was determined as 16.8 ± 0.09 ×10⁻⁶ cm/s; the Papp B→A at 2 h, 2 µM was found to be 16.1 ± 1.46 ×10⁻⁶ cm/s; the efflux ratio at 2 h, 2 µM was 0.96.

`C=C[C@H]1C[N@@]2CC[C@H]1C[C@@H]2[C@@H](O)c1ccnc2ccc(OC)cc12` [Quinidine]: the recovery at 2 h, 2 µM in “in vitro [7]” (setting [9]) was 99.1 ± 15.6%; in the data set on P-gp (human MDR1) [4] (LLC-PK1, pH 7.4), 98.7 ± 14.8%. Besides, the “Kp, Brain” value in data set [1] (ref Nicolaï [2020]) is 0.32. Also, the “Kp,uu,Brian” value in data set [1] (ref Nicolaï [2020]) is on record as 0.036. Besides, the Papp B→A at 2 h, 2 µM stood at 17.2 ± 2.85 ×10⁻⁶ cm/s in data set [5] (LLC-PK1, pH 7.4) and 42.9 ± 2.11 ×10⁻⁶ cm/s with P-gp (human MDR1) [6] (LLC-PK1, pH 7.4). Also, the Papp A→B at 2 h, 2 µM is 23.4 ± 0.37 ×10⁻⁶ cm/s in data set [5] (setting [8]) and 2.48 ± 1.06 ×10⁻⁶ cm/s with P-gp (human MDR1) [6] (LLC-PK1, pH 7.4).

Take `Nc1c2c(nc3ccccc13)CCCC2` [Tacrine]: in the data set “in vitro [7]”, the Papp B→A at 2 h, 2 µM stood at 27.2 ± 2.27 ×10⁻⁶ cm/s and the recovery at 2 h, 2 µM turned out to be 114 ± 3.02%. The same molecule had a Papp A→B at 2 h, 2 µM in the data set “in vitro [7]” (LLC-PK1, pH 7.4, Papp A-B) of 30.9 ± 1.76 ×10⁻⁶ cm/s. In the data set on P-gp (human MDR1) [4] (LLC-PK1, pH 7.4), this molecule came in with a Papp B→A at 2 h, 2 µM of 34.1 ± 2.16 ×10⁻⁶ cm/s and a recovery at 2 h, 2 µM of 105 ± 4.23%. In the data set with P-gp (human MDR1) [4] (LLC-PK1, pH 7.4, Papp A-B), this molecule registered a Papp A→B at 2 h, 2 µM of 23.6 ± 1.1 ×10⁻⁶ cm/s. Besides, in data set [1] (rat, in vivo), the “Kp, Brain” value is on record as 9.56 and the “Kp,uu,Brian” value is 0.78.

For the molecule `COc1cccc(C2(O)CCCCC2CN(C)C)c1` (stereo not shown) [Tramadol], in the data set “in vitro [7]”, the recovery at 2 h, 2 µM is 113 ± 3.59%. This molecule also had a recovery at 2 h, 2 µM with P-gp (human MDR1) [4] (LLC-PK1, pH 7.4) of 109 ± 2.73%. Further, in data set [1] (ref Fridén [2009]), the “Kp, Brain” value was 5.29 and the “Kp,uu,Brian” value is recorded as 1.46. Also, in data set [5] (LLC-PK1, pH 7.4), the Papp A→B at 2 h, 2 µM turned out to be 27.3 ± 0.2 ×10⁻⁶ cm/s; the Papp B→A at 2 h, 2 µM came to 23.3 ± 1.43 ×10⁻⁶ cm/s; the efflux ratio at 2 h, 2 µM was found to be 0.85. Besides, in the data set with P-gp (human MDR1) [6] (LLC-PK1, pH 7.4), the apparent permeability from apical to basolateral (Papp A→B) at 2 h, 2 µM was 26.3 ± 1.05 ×10⁻⁶ cm/s; the Papp B→A at 2 h, 2 µM was found to be 25.2 ± 1.1 ×10⁻⁶ cm/s; the efflux ratio at 2 h, 2 µM was 0.96.

As for `CC[C@]1(O)C[C@@H]2CN(CCc3c([nH]c4ccccc34)[C@@](C(=O)OC)(c3cc4c(cc3OC)N(C)[C@H]3[C@@](O)(C(=O)OC)[C@H](OC(C)=O)[C@]5(CC)C=CCN6CC[C@]43[C@@H]65)C2)C1` [Vinblastine], the fraction unbound at 6 h, 5 µM was 0.06 in “in vitro [2]” and under 0.01 in “in vitro [3]”. Moreover, the Kp uu in “in vivo” (SD, iv, 1 mg/kg) is under 0.088. The molecule further yielded a Kp in the data set “in vivo” (SD, iv, 1 mg/kg) of 0.528. Further, the recovery at 2 h, 2 µM in “in vitro [7]” (setting [9]) was determined as 86.5 ± 1.69%; with P-gp (human MDR1) [4] (LLC-PK1, pH 7.4), 103 ± 9.03%. Also, the Papp B→A at 2 h, 2 µM in data set [5] (LLC-PK1, pH 7.4) is 4.16 ± 0.32 ×10⁻⁶ cm/s; with P-gp (human MDR1) [6] (LLC-PK1, pH 7.4), 20.4 ± 1.81 ×10⁻⁶ cm/s. The efflux ratio at 2 h, 2 µM came to 0.96 in data set [5] (LLC-PK1, pH 7.4) and 7.2 in the data set with P-gp (human MDR1) [6] (LLC-PK1, pH 7.4). Also, the Papp A→B at 2 h, 2 µM in data set [5] (setting [8]) worked out at 4.33 ± 0.21 ×10⁻⁶ cm/s; in the data set on P-gp (human MDR1) [6] (LLC-PK1, pH 7.4) it was 2.84 ± 0.27 ×10⁻⁶ cm/s.

One may read the fraction unbound as free concentration divided by total concentration. High values mean much free substance, low ones little free substance. By Papp B→A is commonly meant the apparent permeability from the basolateral to the apical side of a cell layer. As usually defined, the Papp A→B is how fast a substance crosses the layer from the apical side. Higher therefore signals ready permeation. The term efflux ratio denotes a quotient of directional permeabilities that is used to spot active efflux.
